Several values for one entry are separate records, joined by “and”; a condition that tells them apart may be missing. Equal entries are not always repeated.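 Exposure lasted 48 hours, with cells grown in 96-well plates and compounds tested at five concentrations. GI50 = concentration required for 50% inhibition of growth. TGI denotes the concentration required for complete inhibition of growth.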
Assays:
Experiment in all cases: NCI anticancer screen, dose series, 48 h
T-47D breast = system: T-47D breast
SW-620 colon = system: SW-620 colon
TK-10 renal = system: TK-10 renal
RPMI-8226 leukemia = system: RPMI-8226 leukemia
CCRF-CEM leukemia = system: CCRF-CEM leukemia
MDA-MB-435 = system: MDA-MB-435
NCI-H226 lung = system: NCI-H226 lung
SR leukemia = system: SR leukemia
OVCAR-5 ovarian = system: OVCAR-5 ovarian
HL-60(TB) leukemia = system: HL-60(TB) leukemia
SK-MEL-28 melanoma = system: SK-MEL-28 melanoma
SNB-19 CNS = system: SNB-19 CNS
SN12C renal = system: SN12C renal
NCI-H522 lung = system: NCI-H522 lung
786-0 renal = system: 786-0 renal
M14 melanoma = system: M14 melanoma
SF-295 CNS = system: SF-295 CNS
HCT-15 colon = system: HCT-15 colon
SF-539 CNS = system: SF-539 CNS
COLO 205 colon = system: COLO 205 colon
MCF7 breast = system: MCF7 breast
HCT-116 colon = system: HCT-116 colon
BT-549 breast = system: BT-549 breast
ACHN renal = system: ACHN renal
HT29 colon = system: HT29 colon
NCI-H23 lung = system: NCI-H23 lung
HOP-62 NSCLC = system: HOP-62 NSCLC
UO-31 renal = system: UO-31 renal
MALME-3M melanoma = system: MALME-3M melanoma
SK-MEL-5 melanoma = system: SK-MEL-5 melanoma
HOP-92 NSCLC = system: HOP-92 NSCLC
IGROV1 ovarian = system: IGROV1 ovarian
KM12 colon = system: KM12 colon
MDA-MB-231 breast = system: MDA-MB-231 breast
SK-OV-3 ovarian = system: SK-OV-3 ovarian
MOLT-4 leukemia = system: MOLT-4 leukemia
PC-3 prostate = system: PC-3 prostate
EKVX NSCLC = system: EKVX NSCLC
SK-MEL-2 melanoma = system: SK-MEL-2 melanoma
OVCAR-8 ovarian = system: OVCAR-8 ovarian
HCC-2998 colon = system: HCC-2998 colon
OVCAR-3 ovarian = system: OVCAR-3 ovarian
OVCAR-4 ovarian = system: OVCAR-4 ovarian
UACC-62 melanoma = system: UACC-62 melanoma
A498 renal = system: A498 renal
SNB-75 CNS = system: SNB-75 CNS
LOX IMVI melanoma = system: LOX IMVI melanoma
NCI-H460 lung = system: NCI-H460 lung
A549 NSCLC = system: A549 NSCLC
HS 578T breast = system: HS 578T breast
K-562 leukemia = system: K-562 leukemia
NCI/ADR-RES ovarian = system: NCI/ADR-RES ovarian
RXF 393 renal = system: RXF 393 renal
SF-268 CNS = system: SF-268 CNS
U251 CNS = system: U251 CNS

## COC(=O)[C@@H](C)C[C@H](Cc1ccccc1)NC(=O)c1csc([C@@H](C[C@H](C(C)C)N(C)C(=O)[C@@H](NC(=O)[C@H]2CCCCN2C)C(C)C)OC(C)=O)n1
T-47D breast
  GI50: > 25000 nM
  TGI: > 25000 nM
SW-620 colon
  TGI: > 25000 nM
TK-10 renal
  GI50: 22.3 nM and 2.5 nM
  TGI: > 25000 nM
RPMI-8226 leukemia
  TGI: 7540 nM
CCRF-CEM leukemia
  GI50: 0.425 nM and 2.5 nM
  TGI: > 25000 nM
MDA-MB-435
  GI50: < 0.1 nM
  TGI: 0.135 nM and < 2.5 nM
NCI-H226 lung
  GI50: 2.5 nM
  TGI: > 25000 nM
SR leukemia
  TGI: > 25000 nM
OVCAR-5 ovarian
  GI50: 0.369 nM and 2.5 nM
  TGI: > 25000 nM
HL-60(TB) leukemia
  GI50: 0.187 nM and < 2.5 nM
  TGI: 0.627 nM and < 2.5 nM
SK-MEL-28 melanoma
  GI50: 2.5 nM
  TGI: > 25000 nM
SNB-19 CNS
  TGI: > 25000 nM
SN12C renal
  GI50: 0.567 nM and 2.5 nM
  TGI: > 25000 nM
NCI-H522 lung
  GI50: 0.178 nM
  TGI: 0.897 nM
786-0 renal
  GI50: 0.331 nM and 2.5 nM
  TGI: 24500 nM
M14 melanoma
  GI50: 0.134 nM
  TGI: 0.531 nM
SF-295 CNS
  TGI: 13100 nM
HCT-15 colon
  GI50: 0.31 nM and 2.5 nM
  TGI: > 25000 nM
SF-539 CNS
  GI50: 0.294 nM and < 2.5 nM
  TGI: 2.09 nM and < 2.5 nM
COLO 205 colon
  GI50: < 2.5 nM
  TGI: < 2.5 nM
MCF7 breast
  TGI: > 25000 nM
HCT-116 colon
  TGI: > 25000 nM
BT-549 breast
  GI50: 0.284 nM and < 2.5 nM
  TGI: 18.3 nM and < 2.5 nM
ACHN renal
  GI50: 0.417 nM and 2.5 nM
  TGI: > 25000 nM
HT29 colon
  TGI: > 25000 nM
NCI-H23 lung
  GI50: 0.395 nM and 2.5 nM
  TGI: > 25000 nM
HOP-62 NSCLC
  GI50: 0.396 nM and 2.5 nM
  TGI: > 25000 nM
UO-31 renal
  GI50: 0.932 nM and 2.5 nM
  TGI: > 25000 nM
MALME-3M melanoma
  GI50: 8670 nM
  TGI: > 25000 nM
SK-MEL-5 melanoma
  GI50: < 0.1 nM
  TGI: 3.01 nM and < 2.5 nM
HOP-92 NSCLC
  GI50: 0.692 nM and < 2.5 nM
IGROV1 ovarian
  GI50: 0.308 nM and 2.5 nM
  TGI: > 25000 nM
KM12 colon
  TGI: > 25000 nM
MDA-MB-231 breast
  GI50: 0.506 nM and 2.5 nM
  TGI: 11.6 nM
SK-OV-3 ovarian
  TGI: > 25000 nM
MOLT-4 leukemia
  GI50: 0.5 nM and 2.5 nM
  TGI: > 25000 nM
PC-3 prostate
  TGI: > 25000 nM
EKVX NSCLC
  GI50: 0.617 nM and 3.56 nM
  TGI: > 25000 nM
SK-MEL-2 melanoma
  GI50: 0.256 nM
OVCAR-8 ovarian
  GI50: 0.519 nM and 2.5 nM
  TGI: > 25000 nM
HCC-2998 colon
  GI50: 0.356 nM and 2.5 nM
  TGI: > 25000 nM
OVCAR-3 ovarian
  GI50: < 0.1 nM
OVCAR-4 ovarian
  TGI: > 25000 nM
UACC-62 melanoma
  TGI: > 25000 nM
A498 renal
  GI50: 0.176 nM and < 2.5 nM
  TGI: 0.694 nM and < 2.5 nM
SNB-75 CNS
  TGI: > 25000 nM
LOX IMVI melanoma
  GI50: 0.695 nM and 2.5 nM
  TGI: > 25000 nM
NCI-H460 lung
  TGI: > 25000 nM
A549 NSCLC
  GI50: 0.457 nM and 2.5 nM
  TGI: > 25000 nM
HS 578T breast
  GI50: 0.641 nM
K-562 leukemia
  TGI: > 25000 nM
NCI/ADR-RES ovarian
  GI50: 3.83 nM and 2.5 nM
  TGI: > 25000 nM
RXF 393 renal
  GI50: 2.5 nM
  TGI: > 25000 nM
SF-268 CNS
  GI50: 0.671 nM and 2.5 nM
  TGI: > 25000 nM
U251 CNS
  GI50: 0.396 nM and 2.5 nM
  TGI: > 25000 nM

— PubChem BioAssay (NCI)
